Experimental data: paper PMC6627486, “Ipomoeassin F Binds Sec61α to Inhibit Protein Translocation” (Journal of the American Chemical Society, 2019)

Assays:
[1] = test system: A2780 human ovarian cancer cells; design: method as in PMID 15844934; settings: read-out: IC50, proliferation of A2780 cells; cited from earlier work
MCF7 = experiment: MTT cytotoxicity assay, MCF7; format: cell-based, human; settings: MCF7, 72 h, MTT; read-out: Cytotoxicity (IC50)
Procedure: Two human breast cancer cell lines (MDA-MB-231 and MCF7) and one human breast non-tumorigenic epithelial cell line (MCF-10A) were maintained in a DMEM high glucose culture medium supplemented with 10% fetal bovine serum (FBS) and 2 mM L-glutamine. The cells were grown in a humidified atmosphere of 5% CO2 and 95% air at 37 °C . The culture medi um w as changed every 2–4 days depending on cell density. Cell cultures were passaged once a week using 0.125% trypsin-EDTA to detach the cells from culture flasks/dishes.
The human colorectal cancer cell line HCT116 was maintained in McCoy’s 5A (modified) medium supplemented with 10% fetal bovine serum (FBS). The human embryonic kidney (HEK293T and HEK293 FRT TRex) cell line was maintained in DMEM high glucose culture medium supplemented with 10% fetal bovine serum (FBS).
HepG2 cells were cultured in DMEM supplemented with 10% fetal bovine serum and 2 mM L-glutamine at 37°C under 5% CO2.
Viable cells were counted with a hemocytometer immediately before each experiment. Experiments were done in triplicate. First, 100 μL of MCF7 cells at the density of 50,000 cells/mL were seeded in a 96-well plate (5,000 cells/well), which was incubated at 37 °C and 5% CO2 atmosphere for 24 h. The compounds were dissolved in DMSO (dimethyl sulfoxide) to make drug stocks (10 mM). The stock solutions were diluted with the complete DMEM high glucose culture medium to make a series of gradient fresh working solutions right before each test. Subsequently, the cells were treated with 100 μL of the freshly made gradient working solution in a total volume of 200 μL/well for 72 h. After that, the media were discarded and 200 μL of the fresh complete medium containing 10% of MTT stock solution (5 mg/mL) was added to each well. The plate was then incubated at 37 °C and 5% CO2 for 3 h. Next, 180 μL of the medium was discarded from each well , and 180 μL of DMSO was added to each well to dissol ve formazan crystals. Absorbance of formazan was detected by a microplate reader (BioTek Synergy H1) at 570 nm with 650 nm as the reference wavelength. The percentage of viability compared to the negative control (DMSO-treated cells) was determined . GraphPad Prism 6 software was used to make a plot of %

MCF-10A = experiment: AlamarBlue cytotoxicity assay, MCF-10A; format: cell-based, human; settings: 72 h
Procedure: (§1) AlamarBlue Cytotoxicity Assay
(§2) MDA-MB-231, MCF-10A and HCT116. Viable cells were counted with a hemocytometer immediately before each experiment . Experiments were done in triplicate. First, 100 μL of MDA-MB-231 cells or MCF-10A cells at the density of 50,000 cells/mL was seeded in a 96-well plate (5,000 cells/well) and then incubated at 37 °C and 5% CO2 for 24 h. The compounds were dissolved in DMSO (dimethyl sulfoxide) to make drug stocks (10 mM). The stock solutions were diluted with the complete DMEM high glucose culture medium to make a series of gradient fresh working solutions right before each test. Subsequently, the cells were treated with 100 μL of the freshly made gradient working solution in a total volume of 200 μL/well for 72 h. After that, the media were discarded and 200 μL of the fresh complete medium containing 10% of AlamarBlue (resazurin) stock solution was added to each well. The plate was then incubated at 37 °C and 5% CO2 for another 3 h. Emission of each well at 620 nm was detected by a microplate reader (BioTek Synergy H1) at excitation 580 nm. […]
(§3) Microplate Reader. The percentage of viability compared to the negative control (DMSO-treated cells) […]
(§4) was determined. […]

MDA-MB-231 = experiment: AlamarBlue cytotoxicity assay, MDA-MB-231; format: cell-based, human; settings: MDA-MB-231, 72 h, AlamarBlue; read-out: Cytotoxicity (IC50)
Procedure: as §1, §2, §3, §4

HCT116 = experiment: cells; format: cell-based; settings: Homo sapiens, HCT-116; HCT116, 72 h, Alamar Blue, assayed separately; read-out: Cytotoxicity (IC50)
Procedure: as §1
as §2, with “nm. For HCT116 WT and mutant lines, cells were seeded at 1000 cells/ well in complete McCoys medium. Compounds were diluted from a DMSO stock into culture medium as described above. Cells were treated for 96 h, then viability measured with AlamarBlue, detected using the conditions described but with a BMG Fluostar Optima Microplate Reader. The percentage of viability compared to the negative control (DMSO-treated cells) was determined.” for “nm.”
HCT116 and HEK293T. Viable cells were counted using an automated cell counter (BioRad TC20) before each experiment. […] Emission of each well at 620 nm was detected by a microplate reader (Perkin Elmer EnSpire) at excitation 580 nm. The percentage of viability compared to the negative control (DMSO -treated cells) was determined. […]
Figure S1. […] (C) HCT116 colon carcinoma cells were treated with increasing concentrations of analogues 8, 14, 15, CT8, ipomoeassin F or carrier (0.1% DMSO) and cell viability was assessed at 72 h by the Alamar Blue assay (mean ± S.D., n = 4). […]

[2] = biological target: T1, Sec61-mediated protein translocation (Canis lupus familiaris, UniProt P38377); experiment: In vitro translation and Sec61-dependent translocation into ER microsomes; format: biochemical, canine; settings: type II membrane protein Ii, ER microsomes
T1 construct: ER microsomes derived from canine pancreas; from tissue; host or cells: canine pancreas ER microsomes (nuclease-treated)
Text: In Vitro Membrane Translocation Assays.
Unless otherwise stated, all cDNAs are of human origin and as previously described: CytB5OPG2,16 GypC,17 ppαF (Saccharomyces cerevisiae),16 ppcecAOPG2 (Hyalophora cecropia),16 PPL (Bos Taurus),16 Sec61βOPG216 and VCAM1.17 Ii encodes residues 17 to 232 of the short form of human HLA class II histocompatibility antigen gamma chain (Ii; P04232, isoform 2). Linear DNA templates were generated by PCR and transcribed into RNA using T7 or SP6 polymerase (Promega).
In vitro translation and translocation into ER microsomes
Translation reactions (20 μL) were performed in nuclease-treated rabbit reticulocyte lysate (Promega) in the presence of EasyTag EXPRESS 35S Protein Labelling Mix containing [35S] methionine (Perkin Elmer) (0.533 MBq; 30.15 TBq/mmol). Amino acids minus methionine (Promega) were added to 25 µM each, […]
equivalent volume of DMSO, and nuclease-treated ER microsomes (from stock with OD280 = 44/mL) were added to 6.5% (v/v). Lastly, 10% volume of in vitro transcribed mRNA (from 200-1000 ng/μL stocks) encoding the relevant precursor protein was added and translation reactions performed for 20 min at 30°C. Following incubation with 0.1 mM puromycin for 5 min at 30°C to ensure translational termination and ribosome release, membrane-associated fractions were isolated by centrifugation through an 80 μL high-salt cushion (0.75 M sucrose, 0.5 M KOAc, 5 mM Mg(OAc)2, 50 mM Hepes-KOH, pH 7.9) at 100,000 x g for 10 min at 4°C in a TLA100 rotor (Beckmann). Membrane pellets were suspended directly in SDS (sodium dodecyl sulphate) sample buffer (0.02% bromophenol blue, 62.5 mM, 4% (w/v) SDS, 10% (v/v) glycerol, pH 7.6, 1 M dithiothreitol) and, where indicated, treated with 1,000 U of Endoglycosidase H (New England Biolabs) for 30 min at 37°C prior to analysis. All samples were denatured for 10 min at 70°C prior to resolution by SDS-PAGE (12% or 16% polyacrylamide gels, 120 V, 120 min), gels were fixed (20% MeOH, 10% AcOH) for 5 min, dried (BioRad gel dryer) for 2 h at 65°C and, following exposure to a phosphorimaging plate for 24-72 h, radiolabelled products were visualised using a Typhoon FLA-7000 (GE Healthcare).
Quantitative analysis of Ii membrane insertion was performed using AIDA v.5.0 (Raytest Isotopenmeβgeräte) whereby the ratio of the signal intensity for the 2Gly/0Gly forms was used as a read-out to estimate efficiency of integration into the ER membrane. This value was then expressed relative to the matched DMSO control in order to derive the mean relative ER insertion from three independent experiments (n=3). Statistical significance of the effectiveness of Ipom-F analogues (RM one-way ANOVA) was determined using Tukey’s multiple comparisons test. IC50 value estimates were determined using non-linear regression to fit data to a curve of variable slope (four parameters) using the least squares fitting method in which the bottom and top plateaus of the curve were defined as 0% and 100% respectively. The differences between the estimated IC50 values for the three compounds analysed were statistically significant (****) according to the extra-sum-of-squares F test. Statistical analyses and IC50 estimates were performed using Prism 7.0d (GraphPad) with statistical significance given as n.s., non - significant and ****, P < 0.0001.
U2-OS secNLuc-ATZ Secretion and Cell Viability Assays

HCT-116 cells = experiment: Metabolic labelling of nascent proteins in HCT116 cells; format: cell-based, human; settings: HCT-116, 1 μM, 35S labelling
Procedure: Metabolic Labelling Assays in HCT116 Cells
HCT116 cells were counted using an automated cell counter (BioRad TC20) immediately prior to each experiment. 3 ml of HCT116 cells at a density of 0.166x10^6 cells/mL were seeded to 6-well plates (0.5x10^6 cells/well) and then incubated at 37 °C and 5% CO 2 for 24 h. The compounds were dissolved in DMSO to make drug stocks (10 mM). The stock solutions were diluted with DMEM high glucose culture medium lacking methionine and cysteine to make a fresh working solution immediately prior to each test. Cells were washed twice and 1ml of fresh DMEM lacking methionine and cysteine was added to each well.
Subsequently, the cells were treated with 250 µl of compound solutions in a total volume of 1 ,250 µl/well.
The plate was then incubated at 37 °C and 5% CO 2 for 30 min before 100 µCi 35S-labelled methionine/cysteine was added (Expre35s35s protein labelling mix). Plates were incubated for a further 30 min, then media collected and cells harvested by scraping after four washes in ice-cold PBS. Total protein was acquired by RIPA extraction from the cell pellet, cytoplasmic fraction was acquired by partial permeabilization of the outer cell membranes with 0.15% Digitonin followed by centrifugation, secreted proteins were acquired by TCA precipitation of the media. […]

T1 sequence (P38377 whole entry): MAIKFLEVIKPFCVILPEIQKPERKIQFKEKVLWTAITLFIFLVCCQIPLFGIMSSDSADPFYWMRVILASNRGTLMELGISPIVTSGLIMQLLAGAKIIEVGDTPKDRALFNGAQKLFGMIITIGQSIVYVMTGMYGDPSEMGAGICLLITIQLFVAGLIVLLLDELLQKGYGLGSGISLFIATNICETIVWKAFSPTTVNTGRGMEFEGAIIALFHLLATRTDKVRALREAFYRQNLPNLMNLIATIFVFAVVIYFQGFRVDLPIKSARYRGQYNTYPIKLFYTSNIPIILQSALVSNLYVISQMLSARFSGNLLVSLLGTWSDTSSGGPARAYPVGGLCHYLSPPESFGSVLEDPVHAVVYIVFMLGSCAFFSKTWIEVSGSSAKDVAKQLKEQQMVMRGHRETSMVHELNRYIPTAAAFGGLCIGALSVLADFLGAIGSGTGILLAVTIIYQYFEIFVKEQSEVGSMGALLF
T1 sequence (P60467 whole entry, further chain): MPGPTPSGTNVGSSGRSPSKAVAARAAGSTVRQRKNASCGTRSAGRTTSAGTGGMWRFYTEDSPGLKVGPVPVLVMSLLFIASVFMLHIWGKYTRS
T1 sequence (P60058 whole entry, further chain): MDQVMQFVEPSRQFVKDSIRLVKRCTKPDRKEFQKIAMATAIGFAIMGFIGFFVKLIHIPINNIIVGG

In the case of `C/C=C(\C)C(=O)O[C@@H]1[C@@H](O)[C@@H]2O[C@H]3[C@H](O[C@@H](CCC)CCCCC[C@H](OC(C)=O)C(=O)CCC(=O)OC[C@@H](O2)[C@H]1OC(=O)/C=C/c1ccccc1)O[C@H](C)[C@H](OC(C)=O)[C@@H]3O` [ipomoeassin D], the IC50 [1] is given as 35 nM.

Compound `C/C=C(\C)C(=O)O[C@@H]1[C@@H](O)[C@@H]2O[C@H]3[C@H](O[C@@H](CCCCC)CCCCCCC(=O)CCC(=O)OC[C@@H](O2)[C@H]1OC(=O)/C=C/c1ccc(OCc2cn(CCOCCOCCOCCNS(=O)(=O)c4ccc(-c5c6ccc(=[N+](CC)CC)cc-6oc6cc(N(CC)CC)ccc56)c(S(=O)(=O)[O-])c4)nn2)cc1)O[C@H](C)[C@H](OC(C)=O)[C@@H]3O` [compound 12] has an IC50 (MCF7) of 172 nM, an IC50 (MCF-10A) of 134 nM and an IC50 (MDA-MB-231) of 253 nM.

With `C/C=C(\C)C(=O)O[C@@H]1[C@@H](O)[C@@H]2O[C@H]3[C@H](O[C@@H](CCCCC)CCCCCCC(=O)CCC(=O)OC[C@@H](O2)[C@H]1OC(=O)CCc1ccccc1)O[C@H](C)[C@H](OC(C)=O)[C@@H]3O` [compound 14] the IC50 (HCT116) was 1870 nM, the “inhibition of Ii membrane insertion” value [2] was “far less effective inhibitor” and the “inhibition of production of secreted proteins compared with ipomoeassin F” value (HCT-116 cells) was “less potently”.
